Source: patent publication EP4603105A1, “PHARMACEUTICAL COMPOSITION CONTAINING CYCLIC COMPOUND HAVING SELECTIVE KRAS INHIBITORY EFFECT AGAINST HRAS AND NRAS” (CHUGAI SEIYAKU KABUSHIKI KAISHA, priority 2022, dated 2024)
Where two headings read alike, the source gives them in different places.

Experiments:
HRAS wild-type protein = HRAS wild-type protein (Homo sapiens, UniProt P01112); assay: Binding to HRAS by surface plasmon resonance (SPR), KD and KD ratio to KRAS; conditions: ratio of KD for HRAS wild-type protein to KD for KRAS
Sequence of HRAS wild-type protein (P01112 whole entry): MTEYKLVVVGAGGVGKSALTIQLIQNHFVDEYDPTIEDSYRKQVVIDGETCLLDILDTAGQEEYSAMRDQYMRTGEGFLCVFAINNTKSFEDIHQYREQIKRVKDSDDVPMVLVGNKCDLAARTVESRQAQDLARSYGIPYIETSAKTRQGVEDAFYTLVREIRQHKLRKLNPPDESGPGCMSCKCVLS
Outline: (§1)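 Each cycle, GDP-bound biotin-Avi RAS was captured (~100–300 RU), compound concentrations were injected low to high for 75 s each at 100 µL/min, then the chip was regenerated. Buffer: HBS pH 7.4, 10 mM MgCl2, 10 µM GDP, 1 mM DTT, 4% DMSO; 30°C. KD from a 1:1 binding model.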

[1] = target: GDP-bound NRAS wild-type protein (Homo sapiens, UniProt P01111); assay: Binding to NRAS by surface plasmon resonance (SPR), KD and KD ratio to KRAS; conditions: ratio of KD for GDP-bound NRAS wild-type protein to KD for KRAS
Sequence of GDP-bound NRAS wild-type protein (P01111 whole entry): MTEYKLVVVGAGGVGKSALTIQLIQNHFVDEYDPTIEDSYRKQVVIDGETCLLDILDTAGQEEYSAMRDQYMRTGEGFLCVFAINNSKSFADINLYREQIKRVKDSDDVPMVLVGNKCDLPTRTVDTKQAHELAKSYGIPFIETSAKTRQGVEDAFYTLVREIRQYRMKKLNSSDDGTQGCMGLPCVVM
Outline: as §1

[2] = tested on: human lung cancer strain NCI-H441; format: cell-based
Outline: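 Signal came from […] measured per well once the reagent was added. Beforehand, cells were cultured at 37°C and 5% carbon dioxide on a compound series serially diluted in dimethyl sulfoxide.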

[3] = NCI-H441 cells, 4 days, CellTiter-Glo, read-out: NCl-H441 IC50

Row | Structure (SMILES) | IC50 [2] | HRAS /KRAS (HRAS wild-type protein) | NRAS /KRAS [1] | IC50 [2, 3]
1 | CCC[C@H]1C(=O)N[C@@H]([C@@H](C)CC)C(=O)N(C2CC2)CC(=O)N(C)[C@H]2C/C=C\CCN(C2=O)[C@@H](Cc2ccc(C)cc2)C(=O)N(C)CC(=O)N[C@@H](CCc2cc(F)c3c(c2)CCC3)C(=O)N2C[C@H](OCC)C[C@H]2C(=O)NC2(CC(C)(C)C2)C(=O)N(C)[C@@H](C2CCCC2)C(=O)N(C)[C@H](C(=O)N(C)C)CC(=O)N1C [PP2879] | 122 nM | A (a compound having 10 or more and less than 20 is denoted as A) | A (a compound having 10 or more and less than 20 is denoted as A) | 
2 | CCC[C@H]1C(=O)N[C@@H]([C@@H](C)CC)C(=O)N(C2CC2)CC(=O)N(C)[C@H]2C/C=C\CCN(C2=O)[C@@H](Cc2ccc(C)cc2)C(=O)N(C)CC(=O)N[C@@H](CCc2cc(F)c3c(c2)OCC3)C(=O)N2C[C@H](OCC)C[C@H]2C(=O)NC2(CC(C)(C)C2)C(=O)N(C)[C@@H](C2CCCC2)C(=O)N(C)[C@H](C(=O)N(C)C)CC(=O)N1C [PP2880] | 127 nM | A (a compound having 10 or more and less than 20 is denoted as A) | A (a compound having 10 or more and less than 20 is denoted as A) | 
3 | CCC[C@H]1C(=O)N[C@@H]([C@@H](C)CC)C(=O)N(C2CC2)CC(=O)N(C)[C@H]2C/C=C\CCN(C2=O)[C@@H](Cc2ccc(C)cc2)C(=O)N(C)CC(=O)N[C@@H](CCc2ccc(C3CC3)c(OC)c2)C(=O)N2C[C@H](OCC)C[C@H]2C(=O)NC2(CC(C)(C)C2)C(=O)N(C)[C@@H](C2CCCC2)C(=O)N(C)[C@H](C(=O)N(C)C)CC(=O)N1C [PP2883] | 76.2 nM | A (a compound having 10 or more and less than 20 is denoted as A) | A (a compound having 10 or more and less than 20 is denoted as A) | 
4 | CCC[C@H]1C(=O)N[C@@H]([C@@H](C)CC)C(=O)N(C2CC2)CC(=O)N(C)[C@H]2C/C=C\CCN(C2=O)[C@@H](Cc2ccc(C)cc2)C(=O)N(C)CC(=O)N[C@@H](CCc2ccc(C3CC3)c(F)c2)C(=O)N2C[C@H](OCC)C[C@H]2C(=O)NC2(CC(C)(C)C2)C(=O)N(C)[C@@H](C2CCCC2)C(=O)N(C)[C@H](C(=O)N(C)C)CC(=O)N1C [PP2884] |  | A (a compound having 10 or more and less than 20 is denoted as A) | A (a compound having 10 or more and less than 20 is denoted as A) | 35.9 nM
5 | CCC[C@H]1C(=O)N[C@@H]([C@@H](C)CC)C(=O)N(C2CC2)CC(=O)N(C)[C@H]2C/C=C\CCN(C2=O)[C@@H](Cc2ccc(C)cc2)C(=O)N(C)CC(=O)N[C@@H](CCc2ccc(C3CC3)c(Cl)c2)C(=O)N2C[C@H](OCC)C[C@H]2C(=O)NC2(CC(C)(C)C2)C(=O)N(C)[C@@H](C2CCCC2)C(=O)N(C)[C@H](C(=O)N(C)C)CC(=O)N1C [PP2885] | 80.6 nM | A (a compound having 10 or more and less than 20 is denoted as A) | A (a compound having 10 or more and less than 20 is denoted as A) | 
6 | CCC[C@H]1C(=O)N[C@@H]([C@@H](C)CC)C(=O)N(C2CC2)CC(=O)N(C)[C@H]2C/C=C\CCN(C2=O)[C@@H](Cc2ccc(C)cc2)C(=O)N(C)CC(=O)N[C@@H](CCc2ccc(C3CC3)c(C)c2)C(=O)N2C[C@H](OCC)C[C@H]2C(=O)NC2(CC(C)(C)C2)C(=O)N(C)[C@@H](C2CCCC2)C(=O)N(C)[C@H](C(=O)N(C)C)CC(=O)N1C [PP2886] |  | A (a compound having 10 or more and less than 20 is denoted as A) | A (a compound having 10 or more and less than 20 is denoted as A) | 112 nM
7 | CCC[C@H]1C(=O)N[C@@H]([C@@H](C)CC)C(=O)N(C)CC(=O)N(C)[C@H]2C/C=C\CCN(C2=O)[C@@H](Cc2ccc(C(F)(F)F)cc2)C(=O)N(C)CC(=O)N[C@@H](CCc2cc(Cl)c3c(ccn3C)c2)C(=O)N2C[C@H](OCC)C[C@H]2C(=O)NC2(CC(C)(C)C2)C(=O)N(C)[C@@H](C(CC)CC)C(=O)N(C)[C@H](C(=O)N(C)C)CC(=O)N1C [PP2896] |  | A (a compound having 10 or more and less than 20 is denoted as A) | A (a compound having 10 or more and less than 20 is denoted as A) | 79.3 nM

Continued, in another order:

Row | IC50 [2] | Structure (SMILES) | HRAS /KRAS (HRAS wild-type protein) | NRAS /KRAS [1] | IC50 [2, 3]
8 | 14.2 nM | CCC[C@H]1C(=O)N[C@@H]([C@@H](C)CC)C(=O)N(C)CC(=O)N(C)[C@H]2C/C=C\CCN(C2=O)[C@@H](Cc2ccc(C(F)(F)F)cc2)C(=O)N(C)CC(=O)N[C@@H](CCc2cc(Cl)c3sccc3c2)C(=O)N2C[C@H](OCC)C[C@H]2C(=O)NC2(CC(C)(C)C2)C(=O)N(C)[C@@H](C(CC)CC)C(=O)N(C)[C@H](C(=O)N(C)C)CC(=O)N1C [PP2888] | A (a compound having 10 or more and less than 20 is denoted as A) | AA (a compound having 20 or more is denoted as AA) | 
9 | 20.9 nM | CCC[C@H]1C(=O)N[C@@H]([C@@H](C)CC)C(=O)N(C)CC(=O)N(C)[C@H]2C/C=C\CCN(C2=O)[C@@H](Cc2ccc(C(F)(F)F)cc2)C(=O)N(C)CC(=O)N[C@@H](CCc2ccc3sc(C)c(C)c3c2)C(=O)N2C[C@H](OCC)C[C@H]2C(=O)NC2(CC(C)(C)C2)C(=O)N(C)[C@@H](C2CCCC2)C(=O)N(C)[C@H](C(=O)N(C)C)CC(=O)N1C [PP2889] | A (a compound having 10 or more and less than 20 is denoted as A) | A (a compound having 10 or more and less than 20 is denoted as A) | 
10 | 10.3 nM | CCC[C@H]1C(=O)N[C@@H]([C@@H](C)CC)C(=O)N(C)CC(=O)N(C)[C@H]2C/C=C\CCN(C2=O)[C@@H](Cc2ccc(C)cc2)C(=O)N(C)CC(=O)N[C@@H](CCc2cc(Cl)c3sccc3c2)C(=O)N2C[C@H](OCC)C[C@H]2C(=O)NC2(CC(C)(C)C2)C(=O)N(C)[C@@H](C(CC)CC)C(=O)N(C)[C@H](C(=O)N(C)C)CC(=O)N1C [PP2890] | A (a compound having 10 or more and less than 20 is denoted as A) | AA (a compound having 20 or more is denoted as AA) | 
11 | 8 nM | CCC[C@H]1C(=O)N[C@@H]([C@@H](C)CC)C(=O)N(C)CC(=O)N(C)[C@H]2C/C=C\CCN(C2=O)[C@@H](Cc2ccc(C(F)(F)F)cc2)C(=O)N(C)CC(=O)N[C@@H](CCc2ccc3sc(F)c(C)c3c2)C(=O)N2C[C@H](OCC)C[C@H]2C(=O)NC2(CC(C)(C)C2)C(=O)N(C)[C@@H](C(CC)CC)C(=O)N(C)[C@H](C(=O)N(C)C)CC(=O)N1C [PP2892] | A (a compound having 10 or more and less than 20 is denoted as A) | A (a compound having 10 or more and less than 20 is denoted as A) | 
12 | 72 nM | CCC[C@H]1C(=O)N[C@@H]([C@@H](C)CC)C(=O)N(C)CC(=O)N(C)[C@H]2C/C=C\CCN(C2=O)[C@@H](Cc2ccc(C(F)(F)F)cc2)C(=O)N(C)CC(=O)N[C@@H](CCc2ccc3c(C)c(C)n(C)c3c2)C(=O)N2C[C@H](OCC)C[C@H]2C(=O)NC2(CC(C)(C)C2)C(=O)N(C)[C@@H](C2CCCC2)C(=O)N(C)[C@H](C(=O)N(C)C)CC(=O)N1C [PP2893] | A (a compound having 10 or more and less than 20 is denoted as A) | A (a compound having 10 or more and less than 20 is denoted as A) | 
13 | 9.6 nM | CCC[C@H]1C(=O)N[C@@H]([C@@H](C)CC)C(=O)N(C)CC(=O)N(C)[C@H]2C/C=C\CCN(C2=O)[C@@H](Cc2ccc(C)cc2)C(=O)N(C)CC(=O)N[C@@H](CCc2ccc3sc(F)c(C)c3c2)C(=O)N2C[C@H](OCC)C[C@H]2C(=O)NC2(CC(C)(C)C2)C(=O)N(C)[C@@H](C(CC)CC)C(=O)N(C)[C@H](C(=O)N(C)C)CC(=O)N1C [PP2894] | A (a compound having 10 or more and less than 20 is denoted as A) | AA (a compound having 20 or more is denoted as AA) | 
14 | 59 nM | CCC[C@H]1C(=O)N[C@@H]([C@@H](C)CC)C(=O)N(C)CC(=O)N(C)[C@H]2C/C=C\CCN(C2=O)[C@@H](Cc2ccc(C)cc2)C(=O)N(C)CC(=O)N[C@@H](CCc2ccc3c(C)c(C)n(C)c3c2)C(=O)N2C[C@H](OCC)C[C@H]2C(=O)NC2(CC(C)(C)C2)C(=O)N(C)[C@@H](C2CCCC2)C(=O)N(C)[C@H](C(=O)N(C)C)CC(=O)N1C [PP2895] | A (a compound having 10 or more and less than 20 is denoted as A) | A (a compound having 10 or more and less than 20 is denoted as A) | 
15 | 10.5 nM | CCC[C@H]1C(=O)N[C@@H]([C@@H](C)CC)C(=O)N(C)CC(=O)N(C)[C@H]2C/C=C\CCN(C2=O)[C@@H](Cc2ccc(C(F)(F)F)cc2)C(=O)N(C)CC(=O)N[C@@H](CCc2ccc3c(C)cn(C)c3c2)C(=O)N2C[C@H](OCC)C[C@H]2C(=O)NC2(CC(C)(C)C2)C(=O)N(C)[C@@H](C2CCCC2)C(=O)N(C)[C@H](C(=O)N(C)C)CC(=O)N1C [PP2897] | B (a compound having 3 or more and less than 10 is denoted as B) | A (a compound having 10 or more and less than 20 is denoted as A) | 
16 | 98.1 nM | CCC[C@H]1C(=O)N[C@@H]([C@@H](C)CC)C(=O)N(C)CC(=O)N(C)[C@H]2C/C=C\CCN(C2=O)[C@@H](Cc2ccc(C)cc2)C(=O)N(C)CC(=O)N[C@@H](CCc2cc(Cl)c3c(ccn3C)c2)C(=O)N2C[C@H](OCC)C[C@H]2C(=O)NC2(CC(C)(C)C2)C(=O)N(C)[C@@H](C(CC)CC)C(=O)N(C)[C@H](C(=O)N(C)C)CC(=O)N1C [PP2898] | A (a compound having 10 or more and less than 20 is denoted as A) | A (a compound having 10 or more and less than 20 is denoted as A) | 
